From ChEMBL document CHEMBL1268983, “Functionalized benzophenone, thiophene, pyridine, and fluorene thiosemicarbazone derivatives as inhibitors of cathepsin L” (Bioorg Med Chem Lett, 2010) come the findings set out here.

The target of one assay is Procathepsin L (Homo sapiens, UniProt P07711). Briefly: Inhibition of human liver cathepsin L after 5 mins by microplate reader analysis.
The target in a further assay is Cathepsin B (Homo sapiens, UniProt P07858). Briefly: Inhibition of human liver cathepsin B after 5 mins by microplate reader analysis.
The subject of a further assay is DU-145. The experiment in a line: Cytotoxicity against human DU145 cells after 48 hrs by SRB assay. Format: functional. Conditions: DU-145, 48 h.
For a further assay, the system named is NCI-H460. Briefly: Cytotoxicity against human NCI-H460 cells after 48 hrs by SRB assay. Format: functional. Conditions: NCI-H460, 48 h. (Sulforhodamine B stains cellular protein and so reports cell mass.)

Sequence of Procathepsin L (P07711 whole entry): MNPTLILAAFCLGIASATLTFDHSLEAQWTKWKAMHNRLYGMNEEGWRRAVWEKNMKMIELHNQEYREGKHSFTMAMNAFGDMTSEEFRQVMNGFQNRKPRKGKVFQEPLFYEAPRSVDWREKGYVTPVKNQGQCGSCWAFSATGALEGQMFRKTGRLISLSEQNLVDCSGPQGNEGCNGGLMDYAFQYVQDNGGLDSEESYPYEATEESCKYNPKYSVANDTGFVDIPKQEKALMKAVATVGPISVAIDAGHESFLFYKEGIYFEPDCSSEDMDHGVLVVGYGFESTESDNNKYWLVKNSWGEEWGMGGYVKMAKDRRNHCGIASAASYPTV

Consider `CC(C)(C)[Si](C)(C)Oc1ccc(/C(=N\NC(N)=S)c2cccc(Br)c2)cc1Br`, for which the IC50 against Procathepsin L and at Cathepsin B was greater than 10 µM each time.
Take `COc1ccc(/C(=N\NC(N)=S)c2cc(OC)c(OC)c(OC)c2)cc1O`: the IC50 on Procathepsin L was 3.6 µM; against Cathepsin B, 1.42 µM.
In the same order, the values of `NC(=S)N/N=C(/c1ccccc1)c1cccc(O)c1` are greater than 10 µM and greater than 10 µM.
As to `NC(=S)NN=C1c2ccccc2-c2ccccc21`, the IC50 on Procathepsin L and at Cathepsin B was greater than 10 µM each time.
For the molecule `CC(C)(C)[Si](C)(C)Oc1cc(Br)cc(/C(=N\NC(N)=S)c2cccc(Br)c2)c1`, the IC50 at Procathepsin L and against Cathepsin B was greater than 10 µM throughout.
For the molecule `NC(=S)N/N=C(/c1ccccc1)c1cccs1`, the IC50 at Procathepsin L and against Cathepsin B was greater than 10 µM in each case.
With `NC(=S)N/N=C(/c1cccc(Br)c1)c1cc(O)cc(Br)c1`, the IC50 was 0.232 µM against Procathepsin L and greater than 10 µM against Cathepsin B.
Turning to `NC(=S)N/N=C(/c1cccc(Br)c1)c1cccc(Br)c1O`, the half-maximal inhibitory concentration (IC50) against Procathepsin L and against Cathepsin B was greater than 10 µM throughout.
For `NC(=S)N/N=C(\c1cccnc1)c1cccc(Br)c1`, the IC50 is 1 µM against Procathepsin L and greater than 10 µM at Cathepsin B.
The matching figures for `NC(=S)N/N=C(/c1cccc(Br)c1)C1CCCCC1`: greater than 10 µM and greater than 10 µM.
In the same order, the values of `NC(=S)NN=C1c2cc(Br)ccc2-c2ccc(Br)cc21` are greater than 10 µM and greater than 10 µM.
Take `CC(=O)Oc1cccc(/C(=N\NC(N)=S)c2cccc(Br)c2)c1`: the IC50 against Procathepsin L was 0.151 µM; against Cathepsin B it was 1.6 µM.
The matching figures for `NC(=S)N/N=C(\c1ccc(Br)nc1)c1cccc(Br)c1`: greater than 10 µM and greater than 10 µM.
In the same order, the values of `CC(C)(C)[Si](C)(C)Oc1cccc(/C(=N\NC(N)=S)c2cccc(Br)c2)c1` are greater than 10 µM and greater than 10 µM.
`NC(=S)NN=C(c1ccccc1)c1ccccc1` [BENZOPHENONE-THIOSEMICARBAZONE]: the IC50 on Procathepsin L and at Cathepsin B was greater than 10 µM in each case.
Regarding `NC(=S)N/N=C(/c1cccc(Br)c1)c1ccc(Br)s1`, the values for the IC50 against Procathepsin L and at Cathepsin B were 0.931 µM and greater than 10 µM, respectively.
In the same order, the values of `NC(=S)N/N=C(\Cc1ccccc1)c1ccccc1` are 5.41 µM and greater than 10 µM.
In the same order, the values of `NC(=S)N/N=C(/c1ccccc1)c1cccnc1` are greater than 10 µM and greater than 10 µM.
Take `NC(=S)N/N=C(/c1cccc(Br)c1)c1sccc1Br`: the IC50 is 0.37 µM on Procathepsin L and greater than 10 µM against Cathepsin B.
`NC(=S)N/N=C(\c1cccc(O)c1)c1cccc(Br)c1`: the IC50 against Procathepsin L was 0.131 µM; against Cathepsin B, greater than 10 µM. For the same molecule, the GI50 in the assay on DU-145 was determined as 21.6 µM; in the assay on NCI-H460 it was 23.3 µM.
As for `NC(=S)N/N=C(/c1cccc(Br)c1)c1cccnc1Br`, the IC50 at Procathepsin L and on Cathepsin B was greater than 10 µM in each case.
For the molecule `NC(=S)N/N=C(/c1cccc(Br)c1)c1ccc(O)c(Br)c1`, the half-inhibitory concentration (IC50) turned out to be 0.126 µM on Procathepsin L and 9.49 µM against Cathepsin B.
In the same order, the values of `NC(=S)N/N=C(/c1cccc(Br)c1)c1cccc(OCc2ccccc2)c1` are greater than 10 µM and greater than 10 µM.
In the same order, the values of `NC(=S)N/N=C(/c1cccc(Br)c1)c1cc(Br)cs1` are 0.814 µM and greater than 10 µM.
In the same order, the values of `NC(=S)N/N=C(/c1cccc(Br)c1)c1ccc2c(c1)CCCC2` are 9.65 µM and greater than 10 µM.

Usually IC50 stands for the concentration at which inhibition is half-maximal. A lower IC50 goes with greater potency in that assay. The term GI50 denotes the concentration giving 50% growth inhibition. Read a low GI50 as greater sensitivity of the cells.
